Calls of active or inactive are those of the source.
Tests used:
BJ [1] = experiment: cytotoxicity toward BJ-TERT fibroblasts, dose response, cell-based, RAS-independent, luminescence (AID 1933); assay type: functional; conditions: Homo sapiens
BJ [2] = experiment: cells; assay type: functional, cell-based; conditions: Homo sapiens
BJ [3] = experiment: cytotoxicity toward BJ-TERT-LT-ST fibroblasts, dose response, cell-based, RAS-independent, luminescence (AID 1935); assay type: functional; conditions: Homo sapiens;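 further: BJ fibroblasts immortalized with TERT plus LT and ST oncogenes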
[4] = cytotoxicity toward DRD oncogenic fibroblasts, dose response, cell-based, non-viral oncogenic, luminescence (AID 1934); assay type: functional; conditions: Homo sapiens
[5] = A549 cell cytotoxicity, dose response, cytotoxicity control, plate reader, cherry-pick, antagonist series (AID 743412); assay type: functional, cell-based
[6] = HepG2 cell cytotoxicity, dose response, cytotoxicity control, plate reader, cherry-pick, antagonist series (AID 743416); assay type: functional, cell-based
[7] = LGR2 antagonists, dose response, cell-based, HEK293, CRE-luciferase reporter, cherry pick, set 2 (AID 743343); assay type: functional;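 further: transfected cells were stimulated with diluted bursicon conditioned medium after compound addition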
[8] = MC4R antagonists, dose response, counter-screen for LGR2 antagonist project, cell-based, plate reader, cherry pick (AID 743444); assay type: functional;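 further: transfected HEK 293 cells stimulated with alpha-MSH peptide; potency of inhibitors of the alpha-MSH evoked signal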
[9] = intracellular Trypanosoma cruzi inhibitors in host cells – cell-based, plate reader, cherry-pick samples, set 3, dose response (AID 651818); assay type: functional;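 further: compounds incubated with infected cells for about four days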
[10] = HEK293 cell cytotoxicity, dose response, cytotoxicity control, plate reader, cherry-picked samples (AID 743446); assay type: functional, cell-based
Large T antigen = Large T antigen (Simian virus 40, UniProt P03070); assay type: functional, Betapolyomavirus macacae;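 further: Confirmatory-stage PubChem screen for compounds that inhibit SV40 T antigen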
Sequence of Large T antigen (P03070 whole entry, the tested form may be a part): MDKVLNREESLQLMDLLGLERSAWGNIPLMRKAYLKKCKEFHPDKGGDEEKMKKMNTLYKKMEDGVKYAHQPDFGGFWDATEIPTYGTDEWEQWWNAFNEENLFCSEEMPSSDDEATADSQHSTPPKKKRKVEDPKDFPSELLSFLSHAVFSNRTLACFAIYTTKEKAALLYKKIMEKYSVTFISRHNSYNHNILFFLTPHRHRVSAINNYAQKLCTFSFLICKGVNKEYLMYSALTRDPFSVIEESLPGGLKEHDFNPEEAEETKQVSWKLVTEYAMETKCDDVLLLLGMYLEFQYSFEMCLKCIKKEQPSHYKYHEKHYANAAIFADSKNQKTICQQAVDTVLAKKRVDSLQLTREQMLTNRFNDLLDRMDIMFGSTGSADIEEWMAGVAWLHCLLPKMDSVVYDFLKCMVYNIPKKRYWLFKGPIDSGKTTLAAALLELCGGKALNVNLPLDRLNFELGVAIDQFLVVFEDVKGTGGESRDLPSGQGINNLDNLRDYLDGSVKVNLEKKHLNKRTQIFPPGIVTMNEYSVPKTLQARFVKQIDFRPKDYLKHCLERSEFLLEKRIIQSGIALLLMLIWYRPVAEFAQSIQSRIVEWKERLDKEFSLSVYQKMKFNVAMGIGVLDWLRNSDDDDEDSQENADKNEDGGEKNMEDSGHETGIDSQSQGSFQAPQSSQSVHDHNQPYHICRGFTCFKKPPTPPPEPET

[11] = inhibitors of HIV Env-driven cell fusion, dose response, cherry-pick (AID 652057); assay type: functional, cell-based
[12] = ZM109 Env clade C HIV-1 fusion inhibitors, dose response, HeLa effector, CEM target cells, luciferase, cherry-pick (AID 652058); assay type: functional, cell-based
[13] = inhibitors of clade B AD8 Env fusion, dose response, cell-based, cherry-pick (AID 652062); assay type: functional;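 further: luciferase signal from cell-cell fusion driven by HIV-1 clade B AD8 Env; potency is for inhibitors of fusion seen as a drop in luminescence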
Cytochrome P450 3A4 [14] = target: T1, Cytochrome P450 3A4 (Homo sapiens, UniProt P08684); conditions: Potency
T1 sequence (P08684 whole entry): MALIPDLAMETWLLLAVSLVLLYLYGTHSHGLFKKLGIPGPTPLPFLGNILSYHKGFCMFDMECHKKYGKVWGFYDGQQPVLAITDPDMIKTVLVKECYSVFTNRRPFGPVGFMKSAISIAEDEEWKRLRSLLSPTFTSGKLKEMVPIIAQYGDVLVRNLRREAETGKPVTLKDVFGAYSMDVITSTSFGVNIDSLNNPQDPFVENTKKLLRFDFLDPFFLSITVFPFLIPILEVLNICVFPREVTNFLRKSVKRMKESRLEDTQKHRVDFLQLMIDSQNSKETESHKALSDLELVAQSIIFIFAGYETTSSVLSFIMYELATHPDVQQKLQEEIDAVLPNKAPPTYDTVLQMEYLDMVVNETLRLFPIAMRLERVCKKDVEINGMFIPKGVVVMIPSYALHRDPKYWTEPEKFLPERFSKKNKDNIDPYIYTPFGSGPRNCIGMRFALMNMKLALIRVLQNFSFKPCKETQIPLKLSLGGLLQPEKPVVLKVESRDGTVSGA

[15] = target: T2, Rac GTPase-activating protein 1 (Homo sapiens, UniProt Q9H0H5); experiment: MgcRacGAP GTPase-activating activity inhibitors, confirmation, biochemical, ADP Hunter fluorescence, primary and confirmatory (AID 624330); assay type: functional
T2 sequence (Q9H0H5 whole entry): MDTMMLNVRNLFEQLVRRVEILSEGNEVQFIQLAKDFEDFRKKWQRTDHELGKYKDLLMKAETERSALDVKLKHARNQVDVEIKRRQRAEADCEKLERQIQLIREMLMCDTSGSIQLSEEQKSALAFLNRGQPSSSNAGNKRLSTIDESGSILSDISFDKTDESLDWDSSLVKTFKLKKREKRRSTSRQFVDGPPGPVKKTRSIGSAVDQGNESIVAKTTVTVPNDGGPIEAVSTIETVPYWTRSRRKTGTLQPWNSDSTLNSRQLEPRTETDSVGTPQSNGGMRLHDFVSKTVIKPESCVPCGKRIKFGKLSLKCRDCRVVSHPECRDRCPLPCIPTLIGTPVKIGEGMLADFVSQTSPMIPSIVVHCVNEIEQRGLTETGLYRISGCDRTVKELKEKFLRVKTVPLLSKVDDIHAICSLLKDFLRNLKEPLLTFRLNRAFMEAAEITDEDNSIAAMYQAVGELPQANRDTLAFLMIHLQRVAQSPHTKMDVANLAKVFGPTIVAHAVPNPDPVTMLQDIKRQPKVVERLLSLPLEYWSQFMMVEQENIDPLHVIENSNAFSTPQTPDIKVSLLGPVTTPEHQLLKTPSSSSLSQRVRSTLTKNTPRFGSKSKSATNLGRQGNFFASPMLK

Cytochrome P450 2C19 = Cytochrome P450 2C19 (Homo sapiens, UniProt P33261); experiment: Cytochrome panel assay with activity outcomes. Panel member name: p450-cyp2c19 Compounds with AC50 equal or less than 10 uM are considered active; assay type: functional; conditions: read-out: AC50
Sequence of Cytochrome P450 2C19 (P33261 whole entry): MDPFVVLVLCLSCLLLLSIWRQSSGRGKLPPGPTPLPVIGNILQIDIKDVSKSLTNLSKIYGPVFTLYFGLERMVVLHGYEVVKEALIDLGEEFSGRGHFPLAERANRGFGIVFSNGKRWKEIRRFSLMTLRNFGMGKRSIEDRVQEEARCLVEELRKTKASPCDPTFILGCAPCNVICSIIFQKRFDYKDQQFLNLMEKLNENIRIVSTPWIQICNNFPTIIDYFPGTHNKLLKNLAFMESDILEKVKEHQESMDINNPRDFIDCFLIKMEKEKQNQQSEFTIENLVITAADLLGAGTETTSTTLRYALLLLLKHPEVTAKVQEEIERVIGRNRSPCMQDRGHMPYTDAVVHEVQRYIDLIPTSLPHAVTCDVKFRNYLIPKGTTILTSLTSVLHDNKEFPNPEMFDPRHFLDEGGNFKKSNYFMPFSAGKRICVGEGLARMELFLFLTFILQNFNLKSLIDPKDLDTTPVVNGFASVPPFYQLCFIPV

Cytochrome P450 3A4 [16] = target: T1, Cytochrome P450 3A4
Cytochrome P450 2C9 = Cytochrome P450 2C9 (Homo sapiens, UniProt P11712)
Sequence of Cytochrome P450 2C9 (P11712 whole entry): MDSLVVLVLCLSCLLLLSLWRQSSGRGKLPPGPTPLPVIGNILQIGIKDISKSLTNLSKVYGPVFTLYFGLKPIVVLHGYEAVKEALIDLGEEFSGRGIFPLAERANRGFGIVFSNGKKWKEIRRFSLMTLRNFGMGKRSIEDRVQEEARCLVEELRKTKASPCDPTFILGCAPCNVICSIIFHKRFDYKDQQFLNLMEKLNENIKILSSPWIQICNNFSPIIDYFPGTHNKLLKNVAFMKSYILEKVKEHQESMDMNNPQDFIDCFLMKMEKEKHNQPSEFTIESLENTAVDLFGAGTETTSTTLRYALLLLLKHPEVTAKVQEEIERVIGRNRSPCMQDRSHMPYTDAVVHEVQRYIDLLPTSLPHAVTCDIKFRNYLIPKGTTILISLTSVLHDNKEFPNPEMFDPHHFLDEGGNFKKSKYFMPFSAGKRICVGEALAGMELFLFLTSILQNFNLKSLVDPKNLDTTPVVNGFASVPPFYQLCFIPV

[17] = P. falciparum 3D7-ScDHODH growth inhibitors, dose response, SYBR Green, dry powder samples (AID 1159570); assay type: functional, cell-based;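 further: parasite growth measured after 72 hours of compound exposure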
[18] = P. falciparum Dd2 growth inhibitors, dose response, SYBR Green, cherry-picked samples (AID 1159567); assay type: functional, cell-based
[19] = P. falciparum Dd2 growth inhibitors, dose response, SYBR Green, dry powder samples (AID 1159566); assay type: functional, cell-based;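 further: potency for growth inhibition with lower SYBR green DNA signal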
[20] = P. falciparum ATP4 D1247Y mutant growth inhibitors, dose response, NITD609-resistant line, SYBR Green, dry powder (AID 1159571); assay type: functional, cell-based;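 further: parasites synchronized at ring stage by sorbitol before testing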

For `Cc1ccc2cc(CN(Cc3ccco3)C(=O)c3cccs3)c(O)nc2c1`, the EC50 (BJ [1]) was 13 µM (active), the EC50 (BJ [2]) was 74.4 µM (active) and the EC50 (BJ [3]) was 5.07 µM (active). The EC50 [4] was 4.87 µM (active).

In the case of `COc1ccc(-c2cc3nc(NCC4CCCCC4)n(C)c(=O)c3s2)cc1OC`, the AC50 [5] is reported as 45.8 µM (active), the AC50 [6] is reported as > 52 µM (inactive) and the AC50 [7] is reported as 12.8 µM (active). The AC50 [8] was 2.51 µM (active).

In the case of `C[C@H](CO)N1C[C@H](C)[C@@H](CN(C)Cc2ccc3c(c2)OCO3)Oc2c(NC(=O)Nc3ccc(C(F)(F)F)cc3)cccc2C1=O`, the AC50 [9] is reported as 2.74 µM (active), the AC50 [5] is reported as 25.6 µM (active) and the AC50 [6] is reported as 21.2 µM (active). The AC50 [7] was 19.6 µM (active), the AC50 [8] was 11.9 µM (active) and the AC50 [10] was 17.3 µM (active).

In the case of `C[C@H]1CN([C@@H](C)CO)C(=O)c2cccc(NC(=O)CCCCCC(=O)Nc3ccccc3N)c2O[C@@H]1CN(C)Cc1ccc2c(c1)OCO2`, the AC50 [9] is reported as 1.72 µM (active).

With `C[C@@H]1CN([C@@H](C)CO)C(=O)c2cccc(NC(=O)c3ccc(-c4nccs4)cc3)c2O[C@H]1CN(C)Cc1ccc(Oc2ccccc2)cc1` the AC50 [9] was 3.03 µM (active).

With `COc1ccc(S(=O)(=O)Nc2ccc3c(c2)CC(=O)N([C@H](C)CO)C[C@@H](C)[C@@H](CN(C)S(=O)(=O)c2cccs2)O3)cc1` the AC50 [9] was 6.01 µM (active).

In the case of `C[C@@H]1CN([C@@H](C)CO)C(=O)Cc2cc(NS(=O)(=O)c3ccc(F)cc3)ccc2O[C@@H]1CN(C)Cc1ccc(Oc2ccccc2)cc1`, the AC50 [9] is reported as 3.56 µM (active).

In the case of `Cc1cccc(C(=O)Nc2ccc(O)cc2)c1`, the IC50 (Large T antigen) is reported as 10.7 µM (active).

For `CC(C)CC#Cc1ccc2c(c1)O[C@@H](CN(C)S(=O)(=O)c1cccc(F)c1)[C@@H](C)CN([C@H](C)CO)S2(=O)=O`, the AC50 [11] was 5.91 µM (active), the AC50 [12] was 0.919 µM (active) and the AC50 [13] was 26.5 µM (active).

In the case of `COc1ccc(NC(=O)Nc2ccc3c(c2)C(=O)N([C@@H](C)CO)C[C@H](C)[C@H](CN(C)S(=O)(=O)c2ccc(OC)cc2)O3)cc1`, the AC50 [11] is reported as 4.26 µM (active), the AC50 [12] is reported as 4.38 µM (active) and the AC50 [13] is reported as 17.5 µM (active).

In the case of `CCN1C[C@@]2(COC(=O)c3ccccc3N3C(=O)CC(C)C3=O)CC[C@H](OC)[C@]34C5C[C@H]6[C@@H](OC)C[C@@](O)(C5[C@H]6OC)C(O)(C13)[C@@H](OC)C24` (stereo not given in full), the AC50 (Cytochrome P450 3A4 [14]) is reported as 20 µM (inconclusive).

For `COc1ccccc1CCn1cnc(-c2ccccc2F)c1CC(C)C`, the AC50 [5] was 27 µM (active), the AC50 [6] was 27.2 µM (active) and the AC50 [7] was 17.5 µM (active). The AC50 [8] was 18.9 µM (active) and the AC50 [10] was > 52 µM (inactive).

In the case of `OC(c1ccccc1)(c1ccccc1)C1CCN(CCCOc2cccc(C(F)(F)F)c2)CC1`, the AC50 [5] is reported as 9.53 µM (active), the AC50 [6] is reported as 10.9 µM (active) and the AC50 [7] is reported as 21.7 µM (active). For the same compound, the AC50 [8] was 19.6 µM (active) and the AC50 [10] was 16.9 µM (active).

In the case of `C/N=c1\scc(C)n1/N=C/c1cc(Br)c(O)c(OC)c1`, the IC50 (Large T antigen) is reported as 5.8 µM (active) and the IC50 [15] is reported as 14.4 µM (active).

In the case of `CC12CCC(C(=O)Nc3ccccc3Br)(C/C1=N\O)C2(C)C` (stereo not given), the AC50 (Cytochrome P450 2C19) is reported as 31.6 µM (inconclusive), the AC50 (Cytochrome P450 3A4 [16]) is reported as 20 µM (inconclusive) and the AC50 (Cytochrome P450 2C9) is reported as “inconclusive”.

With `C[C@H]1CN([C@@H](C)CO)C(=O)c2c(c3ccccc3n2C)-c2ccccc2CO[C@@H]1CN(C)C(=O)Nc1cccc(C(F)(F)F)c1` the AC50 [17] was 0.871 µM (active), the AC50 [18] was 1.13 µM (active) and the AC50 [19] was 0.442 µM (active). For the same compound, the AC50 [20] was 0.376 µM (active).

— ChEMBL document CHEMBL1201862, “PubChem BioAssay data set” (2004)
